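Briefly, cells in 96-well plates were exposed to five compound concentrations for 48 h, and endpoints were estimated by linear interpolation. Abbreviation: GI50, concentration required for 50% inhibition of growth.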 Active and inactive are the calls of the source. Rule as the data show it: active = GI50 up to about 1.1 µM and inactive = higher.
What was measured:
Test in all cases: growth of human tumour cells (NCI), 48 h
SR = system: SR
ACHN = system: ACHN
M14 = system: M14
SNB-75 = system: SNB-75
SF-295 = system: SF-295
HCT-116 = system: HCT-116
TK-10 = system: TK-10
EKVX = system: EKVX
SNB-19 = system: SNB-19
DU-145 = system: DU-145
SK-MEL-28 = system: SK-MEL-28
CCRF-CEM = system: CCRF-CEM
KM12 = system: KM12
RPMI-8226 = system: RPMI-8226
COLO 205 = system: COLO 205
MCF7 = system: MCF7
Malme-3M = system: Malme-3M
SK-MEL-2 = system: SK-MEL-2
SW-620 = system: SW-620
HOP-92 = system: HOP-92
OVCAR-5 = system: OVCAR-5
HL-60 = system: HL-60
T47D = system: T47D
RXF 393 = system: RXF 393
786-0 = system: 786-0
MDA-MB-231 = system: MDA-MB-231
MOLT-4 = system: MOLT-4
K562 = system: K562
IGROV-1 = system: IGROV-1
NCI-H522 = system: NCI-H522
Hs-578T = system: Hs-578T
A498 = system: A498
HOP-62 = system: HOP-62
SF-268 = system: SF-268
OVCAR-3 = system: OVCAR-3
SK-OV-3 = system: SK-OV-3
HCT-15 = system: HCT-15
U-251 = system: U-251
HT-29 = system: HT-29
NCI-H23 = system: NCI-H23
UACC-257 = system: UACC-257
A549 = system: A549
OVCAR-8 = system: OVCAR-8
SF-539 = system: SF-539
PC-3 = system: PC-3
NCI-H226 = system: NCI-H226
MDA-MB-435 = system: MDA-MB-435
CAKI-1 = system: CAKI-1
NCI/ADR-RES = system: NCI/ADR-RES
LOX IMVI = system: LOX IMVI
UO-31 = system: UO-31
OVCAR-4 = system: OVCAR-4
HCC 2998 = system: HCC 2998
SK-MEL-5 = system: SK-MEL-5
SN12C = system: SN12C
MDA-N = system: MDA-N
UACC-62 = system: UACC-62

O=C1/C(=C/c2ccccc2)N=C2Sc3c([nH]cnc3=O)N12
GI50 (SR): 25.1 µM (inactive) | GI50 (ACHN): > 100 µM (inactive) | GI50 (M14): > 100 µM (inactive) | GI50 (SNB-75): > 100 µM (inactive) | GI50 (SF-295): > 100 µM (inactive) | GI50 (HCT-116): > 100 µM (inactive) | GI50 (TK-10): > 100 µM (inactive) | GI50 (EKVX): > 100 µM (inactive) | GI50 (SNB-19): > 100 µM (inactive) | GI50 (DU-145): > 100 µM (inactive) | GI50 (SK-MEL-28): > 100 µM (inactive) | GI50 (CCRF-CEM): > 100 µM (inactive) | GI50 (KM12): > 100 µM (inactive) | GI50 (RPMI-8226): > 100 µM (inactive) | GI50 (COLO 205): > 100 µM (inactive) | GI50 (MCF7): > 100 µM (inactive) | GI50 (Malme-3M): > 100 µM (inactive) | GI50 (SK-MEL-2): > 100 µM (inactive) | GI50 (SW-620): > 100 µM (inactive) | GI50 (HOP-92): > 100 µM (inactive) | GI50 (OVCAR-5): > 100 µM (inactive) | GI50 (HL-60): 42.3 µM (inactive) | GI50 (T47D): > 100 µM (inactive) | GI50 (RXF 393): > 100 µM (inactive) | GI50 (786-0): > 100 µM (inactive) | GI50 (MDA-MB-231): > 100 µM (inactive) | GI50 (MOLT-4): 44.3 µM (inactive) | GI50 (K562): 28.2 µM (inactive) | GI50 (IGROV-1): > 100 µM (inactive) | GI50 (NCI-H522): > 100 µM (inactive) | GI50 (Hs-578T): 73.1 µM (inactive) | GI50 (A498): > 100 µM (inactive) | GI50 (HOP-62): > 100 µM (inactive) | GI50 (SF-268): > 100 µM (inactive) | GI50 (OVCAR-3): > 100 µM (inactive) | GI50 (SK-OV-3): > 100 µM (inactive) | GI50 (HCT-15): 68.9 µM | GI50 (U-251): > 100 µM (inactive) | GI50 (HT-29): > 100 µM (inactive) | GI50 (NCI-H23): > 100 µM (inactive) | GI50 (UACC-257): > 100 µM (inactive) | GI50 (A549): > 100 µM (inactive) | GI50 (OVCAR-8): > 100 µM (inactive) | GI50 (SF-539): > 100 µM (inactive) | GI50 (PC-3): > 100 µM (inactive) | GI50 (NCI-H226): 78.2 µM (inactive) | GI50 (MDA-MB-435): 60 µM (inactive) | GI50 (CAKI-1): > 100 µM (inactive) | GI50 (NCI/ADR-RES): > 100 µM (inactive) | GI50 (LOX IMVI): > 100 µM (inactive) | GI50 (UO-31): > 100 µM (inactive) | GI50 (OVCAR-4): 35.1 µM (inactive) | GI50 (HCC 2998): > 100 µM (inactive) | GI50 (SK-MEL-5): > 100 µM (inactive) | GI50 (SN12C): > 100 µM (inactive)

CSc1nc(C)c(CCOC(C)=O)c(N=P(c2ccccc2)(c2ccccc2)c2ccccc2)n1
GI50 (SR): 2.54 µM (inactive) | GI50 (M14): 5.61 µM (inactive) | GI50 (SNB-75): 4.28 µM (inactive) | GI50 (SF-295): > 10 µM (inactive) | GI50 (TK-10): > 10 µM (inactive) | GI50 (EKVX): > 10 µM (inactive) | GI50 (DU-145): > 10 µM (inactive) | GI50 (SK-MEL-28): > 10 µM (inactive) | GI50 (CCRF-CEM): 3.89 µM (inactive) | GI50 (KM12): 3.72 µM (inactive) | GI50 (RPMI-8226): 3.14 µM (inactive) | GI50 (MDA-N): 4.05 µM (inactive) | GI50 (MCF7): 3.49 µM (inactive) | GI50 (Malme-3M): > 10 µM (inactive) | GI50 (SW-620): 4.97 µM (inactive) | GI50 (HL-60): 2.82 µM (inactive) | GI50 (T47D): 4.24 µM (inactive) | GI50 (RXF 393): 2.89 µM (inactive) | GI50 (786-0): > 10 µM (inactive) | GI50 (MDA-MB-231): 6.56 µM (inactive) | GI50 (MOLT-4): 2.11 µM (inactive) | GI50 (K562): 3.42 µM (inactive) | GI50 (IGROV-1): > 10 µM (inactive) | GI50 (UACC-62): 5.75 µM (inactive) | GI50 (HOP-62): 7.94 µM (inactive) | GI50 (SF-268): 4.12 µM (inactive) | GI50 (SK-OV-3): > 10 µM (inactive) | GI50 (HCT-15): 4.89 µM | GI50 (HT-29): 4.07 µM (inactive) | GI50 (NCI-H23): 3.77 µM (inactive) | GI50 (UACC-257): 6.18 µM (inactive) | GI50 (A549): 5.12 µM (inactive) | GI50 (OVCAR-8): 4.88 µM (inactive) | GI50 (PC-3): 2.53 µM (inactive) | GI50 (CAKI-1): 8.26 µM (inactive) | GI50 (LOX IMVI): 1.33 µM (inactive) | GI50 (HCC 2998): > 10 µM (inactive) | GI50 (SK-MEL-5): 6.81 µM (inactive) | GI50 (SN12C): 6.78 µM (inactive)

N#Cc1ccc(/N=C(/NCC(=O)O)Nc2ccc3ccccc3c2)cc1
GI50 (SR): > 10 µM (inactive) | GI50 (M14): > 10 µM (inactive) | GI50 (SNB-75): > 10 µM (inactive) | GI50 (SF-295): > 10 µM (inactive) | GI50 (TK-10): > 10 µM (inactive) | GI50 (EKVX): > 10 µM (inactive) | GI50 (DU-145): > 10 µM (inactive) | GI50 (SK-MEL-28): > 10 µM (inactive) | GI50 (CCRF-CEM): > 10 µM (inactive) | GI50 (KM12): > 10 µM (inactive) | GI50 (RPMI-8226): > 10 µM (inactive) | GI50 (COLO 205): > 10 µM (inactive) | GI50 (MDA-N): > 10 µM (inactive) | GI50 (MCF7): > 10 µM (inactive) | GI50 (Malme-3M): > 10 µM (inactive) | GI50 (SW-620): > 10 µM (inactive) | GI50 (HL-60): > 10 µM (inactive) | GI50 (T47D): > 10 µM (inactive) | GI50 (RXF 393): > 10 µM (inactive) | GI50 (786-0): > 10 µM (inactive) | GI50 (MDA-MB-231): > 10 µM (inactive) | GI50 (MOLT-4): > 10 µM (inactive) | GI50 (K562): > 10 µM (inactive) | GI50 (IGROV-1): > 10 µM (inactive) | GI50 (UACC-62): > 10 µM (inactive) | GI50 (HOP-62): > 10 µM (inactive) | GI50 (SF-268): > 10 µM (inactive) | GI50 (SK-OV-3): > 10 µM (inactive) | GI50 (HCT-15): > 10 µM | GI50 (HT-29): > 10 µM (inactive) | GI50 (NCI-H23): > 10 µM (inactive) | GI50 (UACC-257): > 10 µM (inactive) | GI50 (A549): > 10 µM (inactive) | GI50 (OVCAR-8): > 10 µM (inactive) | GI50 (PC-3): > 10 µM (inactive) | GI50 (CAKI-1): > 10 µM (inactive) | GI50 (HCC 2998): > 10 µM (inactive) | GI50 (SK-MEL-5): > 10 µM (inactive) | GI50 (SN12C): > 10 µM (inactive)

From ChEMBL document CHEMBL1201862, “PubChem BioAssay data set” (2004)
